Source: patent US20030125235A1, “Treatment of diseases associated with cytokine production with inhibitors of the tec family of protein tyrosine kinases” (priority 2000, published 2003)

How the values were obtained:
[1] = tested on: RAW 264.7 murine macrophages; experiment: LPS-induced TNF-α production in RAW 264.7 murine macrophages (ELISA); format: cell-based
Description: The murine macrophage cell line, Raw 264.7 were maintained in DMEM medium supplemented with 100 units/ml penicillin/streptomycin and 5% heat-inactivated fetal calf serum at 37° C. in a humidified atmosphere containing 5% CO2.
(§1) Supernatants from experiments using either human macrophages, rheumatoid synovial cells or PBMCs were analyzed for TNF-α ot IL-1 by enzyme-linked immunosorbent assay (ELISA). The ELISA for hTNF-α was performed as described by Engelberts et al. (1991) Lymphokine Cytokine Res. 10, 60-76.
This compound was investigated for its effects on TNF-α production. […] Supernatants were then harvested and assayed for TNF-α by ELISA as described in the Methods section.

Lyn, Syk or MAP kinases = conditions: Kawakami et al. 1999; cited from earlier work
Btk = Btk (Homo sapiens, UniProt Q06187); conditions: literature (Kawakami et al. 1999; Mahajan et al. 1999); cited from earlier work
TNF production = conditions: cited from earlier work; for LPS-induced TNF production: Geng et al. 1993
[2] = tested on: RA synovial membrane cultures; experiment: Spontaneous TNF production in rheumatoid arthritis synovial membrane cultures (ELISA); format: cell-based, human; conditions: overnight culture; FIG. 10
Description: Synovium from rheumatoid patients undergoing joint replacement surgery was dissociated by cutting into small pieces, digested with collagenase and DNase (Buchan et al., 1988). The total cell mixture consisting predominantly of T cells and macrophages were cultured at a density of 1×10^6 cells/ml in RPMI containing 100 units/ml penicillin/streptomycin and 5% heat-inactivated fetal calf serum.
as §1
RA synovial cultures were treated with herbimycin at the given concentrations. Following overnight culture the supernatants were harvested and TNF expression measured by ELISA.

human monocytes = conditions: Stefanova et al. 1993; cited from earlier work

Btk, sequence (Q06187 whole entry, species assumed): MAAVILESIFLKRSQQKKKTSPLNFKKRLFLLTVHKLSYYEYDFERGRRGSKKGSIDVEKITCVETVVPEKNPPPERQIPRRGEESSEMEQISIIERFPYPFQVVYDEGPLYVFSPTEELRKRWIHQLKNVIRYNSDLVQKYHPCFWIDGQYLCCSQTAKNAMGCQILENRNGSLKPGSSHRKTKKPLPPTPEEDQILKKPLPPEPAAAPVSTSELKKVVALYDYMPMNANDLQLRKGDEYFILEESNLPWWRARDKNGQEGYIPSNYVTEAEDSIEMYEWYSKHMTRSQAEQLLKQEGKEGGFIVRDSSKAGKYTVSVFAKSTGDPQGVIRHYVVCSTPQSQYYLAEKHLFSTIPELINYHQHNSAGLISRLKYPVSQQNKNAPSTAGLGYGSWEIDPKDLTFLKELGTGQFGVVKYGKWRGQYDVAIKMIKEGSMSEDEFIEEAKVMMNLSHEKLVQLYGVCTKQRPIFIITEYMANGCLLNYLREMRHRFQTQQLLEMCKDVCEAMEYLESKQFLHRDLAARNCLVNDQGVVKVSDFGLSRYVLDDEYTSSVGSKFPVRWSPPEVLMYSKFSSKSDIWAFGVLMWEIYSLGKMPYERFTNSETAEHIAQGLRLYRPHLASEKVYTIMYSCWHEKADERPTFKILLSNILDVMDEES

## C/C(O)=C(\C#N)C(=O)Nc1cc(Br)ccc1Br [LFM-A13]
[1]; 200 μM, 1 h pretreatment, LPS 10 ng/ml for 4 h, FIG. 3
  inhibition of LPS-induced TNF-α expression: 44%
[1]; above 200 μM
  toxicity limiting the usable concentration: toxicity
[1]; various concentrations, 1 h pretreatment, LPS 10 ng/ml for 4 h, FIG. 3
  block of LPS-induced TNF-α expression (concentration dependence): dose-dependent manner

## CC1=C(O)C(=O)[C@@H]2O[C@@H]2C1=O [Terreic acid]
Lyn, Syk or MAP kinases
  effect on activity of Lyn, Syk or MAP kinases: without affecting the activity
Btk
  inhibition of Btk: inhibit Btk

## O=c1c(-c2ccc(O)cc2)coc2cc(O)cc(O)c12 [genistein]
TNF production
  LPS-induced TNF production: block

## CO[C@H]1[C@@H](OC)C[C@H](C)[C@@H](OC)C2=CC(=O)C=C(NC(=O)/C(C)=C/C=C\[C@H](OC)[C@@H](OC(N)=O)/C(C)=C/[C@@H]1C)C2=O [herbimycin]
TNF production
  LPS-induced TNF production: block
[2]
  inhibition of spontaneous TNF production: potent inhibitor
Human monocytes
  LPS-induced production of TNF-α and IL-1: completely blocks

## N#CC(C#N)=Cc1ccc([N+](=O)[O-])c(O)c1 [tyrophostin AG126]
TNF production; Novogradsky et al. 1994
  TNF production: block
